What was measured:
[1] = test system: NIH 3T3 cells; assay: clonogenic assays for drug resistance of NIH 3T3 cells transduced with MDR1 constructs; type: cell-based; conditions: for doxorubicin resistance relative to the LMDR1-G185V construct: FIG. 5B, 6B; for taxol resistance relative to the LMDR1-G185V construct: FIG. 6E; for vinblastine resistance relative to the LMDR1-G185V construct: FIG. 6D; for etoposide resistance relative to the LMDR1-G185V construct / fold increase in etoposide resistance relative to the LMDR1-G185V construct: FIG. 5A; for etoposide resistance relative to the LMDR1-G185V construct: 6A; for colchicine resistance relative to the LMDR1-G185V construct: FIG. 5C, 6C; for fold increase in doxorubicin resistance relative to the LMDR1-G185V construct: transduced NIH 3T3 cells, Table II; for fold increase in etoposide resistance relative to the LMDR1-G185V construct: transduced NIH 3T3 cells sorted for similar P-glycoprotein levels; for colchicine resistance relative to cells transduced with wild-type MDR1: FIG. 4B; for doxorubicin resistance relative to cells transduced with wild-type MDR1: FIG. 4C; for etoposide resistance relative to cells transduced with wild-type MDR1: FIG. 4A; for taxol resistance relative to cells transduced with wild-type MDR1: FIG. 4E; for vinblastine resistance relative to cells transduced with wild-type MDR1: FIG. 4D
Source text: FIGS. 4A through 4E illustrate the results of clonogenic assays for resistance to etoposide (panel A), colchicine (panel B), doxorubicin (panel C), vinblastine (panel D), and taxol (panel E) for NIH 3T3 cells transduced with LXSN (closed squares), wild-type MDR1 (closed circles), MDR1-G185V (open circles), MDR1-I186N (closed triangles), or MDR1-G185V/I186N (open triangles);
FIGS. 5A through 5C illustrate the results of clonogenic assays for resistance to etoposide (panel A), doxorubicin (panel B), and colchicine (panel C) for NIH 3T3 cells transduced with LMDR1-G185V (open circles), LMDR1-G185V-EK2 (closed triangles), LMDR1-G185V-EK3 (open triangles), or LMDR1-G185V-EK5 (closed diamonds);
FIGS. 6A through 6E illustrate the results of clonogenic assays for resistance to etoposide (panel A), doxorubicin (panel B), colchicine (panel C), vinblastine (panel D), and taxol (panel E) for NIH 3T3 cells transduced with LMDR1-G185V (closed circles), LMDR1-G185V-L56F (open circles), LMDR1-G185V-I190F/M197F (closed triangles), LMDR1-G185V-G763W (open triangles), or LMDR1-G185V-G844Q (closed squares).
Retroviral vectors carrying LXSN (negative control carrying the neomycin/G418 resistance gene), wild-type MDR1, MDR1-G185V, MDR1-I186N, or MDR1-G185V/I186N were individually transduced into NIH 3T3 cells. Populations transduced with MDR1 containing vectors were stained with the P-glycoprotein-specific monoclonal antibody MRK16, and then sorted to obtain cell populations expressing a similar level of P-glycoprotein.
NIH 3T3 cells were transduced with the LMDR1-G185V, LMDR1-G185V-EK2, LMDR1-G185V-EK3, or LMDR1-G185V-EK5 constructs, and the transduced cells were then sorted by FACS to generate pure populations of P-glycoprotein positive cells having similar levels of P-glycoprotein. Following sorting, the cell populations were analyzed for their drug resistance.
To investigate the mutants 8-A4, 5-C3, 2-B2, and 2-B1, having mutations in one of the transmembrane domains, MDR1-G185V cDNA was modified by site-directed mutagenesis to create the following constructs: LMDR1-G185V-L56F (leucine to phenylalanine mutation at residue 56), LMDR1-G185V-I190F/M197F (isoleucine to phenylalanine mutation at amino acid residue 190 and methionine to phenylalanine mutation at residue 197), LMDR1-G185V-G763W (glycine to tryptophan mutation at residue 763), and LMDR1-G185V-G844Q (glycine to glutamine mutation at residue 844). NIH 3T3 cells were transduced with either the LMDR1-G185V construct or one of the transmembrane mutant constructs, and the transduced cells were then sorted by FACS to generate pure populations of P-glycoprotein positive cells having similar levels of P-glycoprotein. Following sorting, the cell populations were analyzed for their drug resistance.

[2] = test system: NIH 3T3 cells; assay: etoposide resistance / survival in etoposide of NIH 3T3 cells transduced with rescued MDR1-G185V mutants; type: cell-based; conditions: mutant fragments recloned into LMDR1-G185V, similar MDR1 expression
Description: Mutant MDR1-G185V cDNA isolated from eleven clonal lines was tested for the ability to confer elevated resistance to etoposide as compared to unmutagenized MDR1-G185V. Fragments of MDR1 cDNA containing mutations were first excised from the MDR1 cDNA using restriction endonucleases that recognize appropriate sites flanking the mutation, and then the fragments were recloned into the parental LMDR1-G185V vector. Naïve NIH 3T3 cells were individually transduced with the eleven LMDR1-G185V mutants, wild-type LMDR1-G185V, or LXSN, and then analyzed by FACS for MDR1 expression. […] The cell populations were then assayed for etoposide resistance.
An array selection strategy was employed to isolate additional MDR1 mutants conferring hyper-resistance to etoposide from the cells transduced with Mut II and selected in 10 μg/mL etoposide, as described in Example 1 (this selection scheme is shown in FIG. 1C and in FIG. 2). The 131 clonal lines from Example 1 were divided into four pools. MDR1 cDNA was recovered by PCR from each of the four pools, recloned back into LXSN, and used to transform bacterial cells to generate four MDR1 mutant libraries. These libraries were plated; individual bacterial colonies were picked and tested by array analysis. […]

Substance | doxorubicin resistance relative to the LMDR1-G185V construct [1] | taxol resistance relative to the LMDR1-G185V construct [1] | vinblastine resistance relative to the LMDR1-G185V construct [1] | colchicine resistance relative to the LMDR1-G185V construct [1] | colchicine resistance relative to cells transduced with wild-type MDR1 [1] | doxorubicin resistance relative to cells transduced with wild-type MDR1 [1] | etoposide resistance relative to cells transduced with wild-type MDR1 [1] | other results
G763W: MDR1-G185V construct with glycine to tryptophan mutation at residue 763 | moderate increases in doxorubicin resistance | no effect on taxol resistance | only a moderate increase in vinblastine resistance | – | – | – | – | –
I190F/M197F: MDR1-G185V construct with isoleucine to phenylalanine at residue 190 and methionine to phenylalanine at residue 197 | moderate increases in doxorubicin resistance | significant increase in taxol resistance | increased vinblastine resistance | – | – | – | – | etoposide resistance relative to the LMDR1-G185V construct [1]: the greatest resistance
L56F: MDR1-G185V construct with leucine to phenylalanine mutation at residue 56 | very strong resistance to doxorubicin | decreased taxol resistance | decreased vinblastine resistance | increased colchicine resistance | – | – | – | –
LMDR1-G185V-EK2: MDR1-G185V construct with glutamic acid to lysine substitutions at positions 634 and 636 | increase doxorubicin resistance | – | – | decrease colchicine resistance | – | – | – | fold increase in doxorubicin resistance relative to the LMDR1-G185V construct [1]: almost two-fold increase; fold increase in etoposide resistance relative to the LMDR1-G185V construct [1]: 1.4 fold
LMDR1-G185V-EK3: MDR1-G185V construct with glutamic acid to lysine substitutions at positions 643, 647, and 652 | increase doxorubicin resistance | – | – | decrease colchicine resistance | – | – | – | fold increase in doxorubicin resistance relative to the LMDR1-G185V construct [1]: nearly a four-fold increase; fold increase in etoposide resistance relative to the LMDR1-G185V construct [1]: 1.6 fold
LMDR1-G185V-EK5: MDR1-G185V construct with glutamic acid to lysine substitutions at positions 634, 636, 643, 647 and 652 | – | – | – | the greatest decrease in colchicine resistance | – | – | – | etoposide resistance relative to the LMDR1-G185V construct [1]: the effect of the double and triple lysine mutants was not additive
MDR1-G185V/I186N: mutant human P-glycoprotein having both G185V and I186N substitutions | – | – | – | – | indistinguishable from that obtained for cells transduced with the MDR1-G185V construct | an even higher level of doxorubicin resistance | higher level of etoposide resistance than cells transduced with either the MDR1-G185V or MDR1-I186N constructs | –
MDR1-G185V: human P-glycoprotein having a glycine to valine substitution at position 185 (SEQ ID NO: 3) [reference compound] | – | – | – | – | an even higher level of colchicine resistance | doxorubicin resistance was enhanced | increase etoposide resistance | taxol resistance relative to cells transduced with wild-type MDR1 [1]: decrease resistance levels to both of these drugs; vinblastine resistance relative to cells transduced with wild-type MDR1 [1]: decrease resistance levels to both of these drugs
MDR1-I186N: mutant human P-glycoprotein having an asparagine substitution at position 186 (SEQ ID NO: 4) | – | – | – | – | increase colchicine resistance | doxorubicin resistance was enhanced | increase etoposide resistance to a similar degree as the G185V substitution | taxol resistance relative to cells transduced with wild-type MDR1 [1]: increase resistance to both of these drugs; vinblastine resistance relative to cells transduced with wild-type MDR1 [1]: increase resistance to both of these drugs; etoposide resistance as compared to unmutagenized MDR1-G185V [2]: increased resistance to etoposide

— patent US7309584B2, “Mutations of the MDR1 P-glycoprotein that improves its ability to confer resistance to chemotherapeutic drugs” (The Board of Trustees of the University of Illinois, priority 2000, dated 2007)
